Data: patent US20220048908A1, “COMPOSITIONS AND METHODS FOR MODULATING HAIR GROWTH” (The Regents of the University of California, priority 2019, published 2022)
Entries after “also recorded” stand apart in the source; their conditions may differ.

How the values were obtained:
[1] = tested on: Ldh activity in HFSCs and the interfollicular epidermis; test: Ldh enzyme activity assay in the epidermis of topically treated animals; type: in vivo, mice; settings: topical, 48 hours during telogen
Experimental: (§1) FIG. 7A: Animals treated topically with UK-5099 (20 μM) show pigmentation and hair growth, indicative of entry into anagen, after 8 days of treatment. Full anagen, indicated by full coat of hair, is achieved after 14 days of treatment. […] Images shown are representative of at least 14 mice from 7 independent experiments. Scale bars indicate 100 micrometers. FIG. 7B: Graph showing time to observed phenotype in vehicle versus UK-5099 treated mice. n=6 mice per condition. Shown as mean±SEM. […] Ldh activity is indicated by purple stain; pink is nuclear fast red counterstain. Scale bars indicate 50 micrometers. FIG. 7D: Metabolomic analysis of Lactate on HFSCs isolated from UK-5099 treated skin for 48 hours; Each bar represents the average signal for each condition where n=9 mice pooled from 3 independent experiments. Shown as mean±SEM. Paired t-test was performed, p<0.05.
To determine whether Ldha expression patterns correlate with activity of the Ldh enzyme, a colorimetric-based enzymatic assay was used to assess Ldh activity capacity in situ. Typically performed on protein lysates or aliquots with a plate reader, the Ldh activity assay was adapted to work in situ on frozen tissue sections. […]
(§2) Quantification of the hair cycle across at least 6 pairs of animals (vehicle vs UK-5099) indicated a strong acceleration of the hair cycle, in as few as 6-9 days (FIG. 7B).

lactate in sorted HFSCs = test: Metabolomic analysis of lactate on HFSCs isolated from treated skin; type: in vivo, mice; settings: topical application, skin treated for 48 hours
Experimental: as §1, §2

hair cycle = test: Topical treatment of mice in telogen with UK-5099: hair cycle / HFSC activation; type: in vivo
Experimental: as §1, §2

[2] = topical treatment of animals in telogen (day 50)

## N#C/C(=C\c1cn(-c2ccccc2)c2ccccc12)C(=O)O [UK-5099, (E)-2-Cyano-3-(1-phenyl-1H-indol-3-yl)acrylic acid]
[1]
  Ldh activity in HFSCs and interfollicular epidermis: Ldh enzyme activity also seen in interfollicular epidermis; also recorded: increased Ldh activity
Lactate in sorted HFSCs
  total levels of lactate in sorted HFSCs: increases total levels of lactate
Hair cycle; [2]
  effect on the hair cycle: robust acceleration of the hair cycle
  effect on the interfollicular epidermis (proliferation): minor hyperproliferation of the interfollicular epidermis
Hair cycle; topical, 20 μM
  time to full anagen, indicated by full coat of hair: 14 days
Hair cycle; topical, 20 μM, at 8 weeks, vehicle remained in telogen
  skin pathology (entry into anagen): enter an accelerated anagen
Hair cycle; topical, 20 μM, vehicle shows none even after 12 days
  time to pigmentation and hair growth, indicative of entry into anagen: 8 days
Hair cycle; topical, at least 6 pairs of animals, vehicle vs UK-5099
  time in which acceleration of the hair cycle is seen: 6 to 9 days
